Each structure is given as a SMILES string.

Assay [1] has as its target Cytosol aminopeptidase (Sus scrofa) (UniProt P28839). The assay can be described thus: Compound was tested for inhibition of Leucine aminopeptidase isolated from porcine kidney; Inhibitor exhibits slow-binding behavior(k on <=1000Me-1Se-1).
Assay in assay [2]: as above

Cytosol aminopeptidase (Sus scrofa), sequence (P28839 whole entry, looked up): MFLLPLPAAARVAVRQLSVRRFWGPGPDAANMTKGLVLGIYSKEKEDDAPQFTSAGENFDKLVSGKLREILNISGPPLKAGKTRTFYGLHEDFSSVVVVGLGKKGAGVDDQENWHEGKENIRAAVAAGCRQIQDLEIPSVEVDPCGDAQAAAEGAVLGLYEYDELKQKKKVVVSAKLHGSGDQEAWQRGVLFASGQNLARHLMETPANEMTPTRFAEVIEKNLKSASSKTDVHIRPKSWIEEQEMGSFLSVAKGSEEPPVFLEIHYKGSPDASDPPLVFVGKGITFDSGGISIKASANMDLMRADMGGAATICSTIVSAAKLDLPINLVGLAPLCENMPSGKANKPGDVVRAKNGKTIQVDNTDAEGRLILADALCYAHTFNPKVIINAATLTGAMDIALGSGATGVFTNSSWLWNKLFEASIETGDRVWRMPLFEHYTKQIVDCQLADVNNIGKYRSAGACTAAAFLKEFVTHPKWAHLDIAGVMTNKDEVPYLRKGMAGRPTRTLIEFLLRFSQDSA

Broadly, the Ki is a dissociation constant, usually derived from enzyme kinetics or from competition with a known ligand. Compound `C[C@H](N)P(=O)(O)O` [1-Ammonium-ethanephosphonic acid anion] registered a Ki in assay [1] of 240 µM.

Compound `CCCCCCCC(N)P(=O)(O)O` (centres undefined) [1-Ammonium-octane-1-phosphonic acid anion] displayed a Ki in assay [2] of 0.47 µM.

Regarding `CC(C)CC(N)P(N)(=O)C(=O)N[C@@H](CC(C)C)C(=O)O` (stereo partly drawn) [1-[amino({[(1S)-1-carboxylateanion-3-methylbutyl]amino}carbonyl)phosphoryl]-3-methylbutan-1-aminium], affinity in assay [1] was put at a Ki of 40 µM.

In the case of `CC(C)C(N)P(=O)(O)O` (centres undefined) [1-amino-2-methylpropylphosphonic acid], in assay [2], affinity was put at a Ki of 1.2 µM.

`CCCCCC(N)P(=O)(O)O` (centres undefined) [1-aminohexylphosphonic acid]: the Ki in assay [1] was determined as 1 µM.

Compound `CCC(N)P(=O)(O)O` (centres undefined) [1-aminopropylphosphonic acid] registered an inhibition constant (Ki) in assay [2] of 3.6 µM.

In the case of `COP(=O)(C(=O)N[C@@H](CC(C)C)C(=O)O)C(N)CC(C)C` (stereo partly drawn) [2-(1-Ammonium-3-methylbutylmethoxyphosphorylcarbonylamino)-4-methyl-(2S)-pentanoate], the affinity in assay [1] corresponds to a Ki of 1650 µM.

Regarding `CC(C)CCN` [3-Methyl-butylamine], the Ki in assay [1] is above 50000 µM.

As to `COP(=O)(O)C(N)Cc1ccccc1` (centres undefined) [(1-Ammonium-2-phenyl-ethyl)-phosphonic acid monomethyl ester], affinity in assay [1] was put at a Ki of 43 µM.

In assay [1], `COP(=O)(O)C(N)CC(C)C` (centres undefined) [(1-Ammonium-3-methyl-butyl)-phosphonic acid monomethyl ester] showed a Ki of 320 µM.

`CC(C)CCP(=O)(O)O` [(3-Methyl-butyl)-phosphonic acid]: the Ki in assay [1] turned out to be 775 µM.

For the compound `N[C@H](Cc1ccccc1)P(=O)(O)O` [(S)-1-Ammonium-2-phenyl-ethanephosphonic acid anion], the Ki in assay [1] is 15.4 µM.

Take `NCP(=O)(O)O` [Ammonium-methanephosphonic acid anion]: the affinity in assay [1], expressed as Ki, was 1040 µM.

In assay [1], `N[C@@H](Cc1ccccc1)P(=O)(O)O` [[(1R)-1-amino-2-phenylethyl]phosphonic acid] yielded an inhibition constant Ki of 0.42 µM.
